This passage reports Ki results from patent US6953788B1, “3-mercaptoacetylamino-1,5-substituted-2-oxo-azepan derivatives useful as inhibitors of matrix metalloproteinase” (Aventis Pharmaceuticals Inc., priority 1996, dated 2005).

Molecules are shown by their SMILES.

One assay addresses T1, MMP-3 (Stromelysin-1) (Homo sapiens, UniProt P08254).
T1 construct: The active MMP-3 was obtained by treatment of proMMP-3 with trypsin; endogenous in cells; host or cells: human rheumatoid synovial fibroblasts stimulated with macrophage-conditioned medium (secreted into the culture medium)
Briefly: Determination of inhibition constant (Ki) for MMP-3, fluorogenic substrate. The assay is classed as biochemical. Particulars: activated MMP-3, 37° C., pH 7.6. How it is done: Aliquots of the activated MMP-3 were stored at −20° C.
The activated MMP-3 is assayed using a fluorogenic substrate, Mca-Pro-Leu-Gly-Leu-Dpa-Ala-Arg-NH2, Knight, C. […] The increase in fluorescence due to cleavage of Gly-Leu peptide bond by MMP-3 was monitored with Perkin-Elmer LS50B Fluorimeter (λex328 nm, λem393 nm, excitation slit 2.5, emission slit 10). Substrate and inhibitor stock solutions were made in DMF and 0.1% HCl-DMF, respectively. […] The enzyme (10 μL of 0.2 μM MMP-3 dilution in assay buffer) was added at the last to start the reaction. […] Under these conditions, the measured Ki,app is close to true Ki.
(§1) The Ki for a competitive inhibitor is calculated using: v0/vi=(1+[I]/Ki,app) and Ki=Ki,app/(1+[S]/KM), where v0 is the initial rate in the absence of inhibitor, vi is the initial rate in the presence of inhibitor at the concentration of [I], [S] is the substrate concentration, and Km is the Michaelis constant. If slow binding is observed (i.e. if the approach to the binding equilibrium is slow), the final steady-state rate rather than the initial rate is taken as vi.

Assay [1] deals with T2, MMP-12 (macrophage metalloelastase) (Homo sapiens, UniProt P39900).
T2 construct: made in house
T2 sequence (P39900 106-263 limits assumed): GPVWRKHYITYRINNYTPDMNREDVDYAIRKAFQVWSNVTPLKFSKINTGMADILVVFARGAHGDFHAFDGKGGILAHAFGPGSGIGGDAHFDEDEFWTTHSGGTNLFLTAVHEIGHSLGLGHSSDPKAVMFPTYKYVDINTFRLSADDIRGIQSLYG
As to the kind of experiment: Determination of inhibition constant (Ki) for MMP-12, fluorogenic substrate. The assay is classed as biochemical. Particulars: 25C., pH 7.6. How it is done: as §1

T1 sequence (P08254 100-477): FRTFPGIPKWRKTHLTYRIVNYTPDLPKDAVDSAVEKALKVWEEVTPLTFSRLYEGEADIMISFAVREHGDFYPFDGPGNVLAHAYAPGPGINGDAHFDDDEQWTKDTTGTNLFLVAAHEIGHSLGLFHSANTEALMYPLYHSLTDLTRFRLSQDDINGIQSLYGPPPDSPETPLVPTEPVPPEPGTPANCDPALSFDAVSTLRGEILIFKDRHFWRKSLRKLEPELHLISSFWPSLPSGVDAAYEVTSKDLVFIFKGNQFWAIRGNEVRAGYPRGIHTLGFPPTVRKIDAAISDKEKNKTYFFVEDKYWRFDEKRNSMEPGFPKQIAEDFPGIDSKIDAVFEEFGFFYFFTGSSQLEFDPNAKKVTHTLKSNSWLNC

What is called Ki is a measure of affinity in units of concentration, obtained from inhibition or displacement. Lower therefore signals tighter binding. On to `CNC(=O)[C@H](Cc1ccccc1)N1CCN(Cc2ccccc2)C[C@H](NC(=O)[C@@H](S)CCCCN2C(=O)c3ccccc3C2=O)C1=O` (relative stereo) [IV-1, 2H-Isoindole-2-hexanamide, N-[hexahydro-4-[2-(methylamino)-2-oxo-1-(phenylmethyl)ethyl]-5-oxo-1-(phenylmethyl)-1H-1,4-diazepin-6-yl]-1,3-dihydro-α-mercapto-1,3-dioxo-, [6S-[4(R*), 6R*(R*)]]-], for which affinity on MMP-3 (Stromelysin-1) was put at a Ki of 210 nM.
Turning to `CNC(=O)C(Cc1ccccc1)N1CCC(c2ccccc2)CC(NC(=O)C(S)CCCCN2C(=O)c3ccccc3C2=O)C1=O` (stereo not drawn) [III-1, 2H-Isoindole-2-hexanamide, N-[hexahydro-1-[2-(methylamino)-2-oxo-1-(phenylmethyl)ethyl]-2-oxo-5-phenyl-1H-azepin-3-yl]-1,3-dihydro-α-mercapto-1,3-dioxo-, [3S-[1(R*), 3α, 5β]]-], the figures for the Ki (at MMP-3 (Stromelysin-1); in assay [1]) were 73 nM and 53 nM, respectively.
